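Five concentrations, 48 hours, 96-well plates. GI50 = concentration required for 50% inhibition of growth. TGI marks complete inhibition of growth.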 A value given as a limit tells only on which side of the number the result lay.

This is an account of results in PubChem BioAssay (NCI).

The first experiment relates to CCRF-CEM leukemia. The experiment in a line: NCI anticancer screen, dose series, 48 h.
The molecule `CC(=O)c1ccc(NC(=O)/C(CC(=O)c2sc(-c3cccnc3)nc2C)=N/NC(N)=O)cc1` returned a TGI of 66.5 µM.
As to `Cc1ccc(S(=O)(=O)OC2CC=CC2)cc1`, the TGI was > 100 µM.
Still for that read-out and setting: then `C=CC[P@]1(=O)O[C@H](c2ccccc2)[C@H](C)N1C`, with > 100 µM; and `O=C(Nc1cccc(O)c1)C(=O)C1C(=O)NC(=S)NC1=O`, with > 100 µM; and `OCC12C=CC(C1)c1ccccc12` (centres undefined), with > 100 µM.
The same measure, in the same setting: then `CCOC1C(Br)Cn2c(=O)c3cc4ccccc4cc3c(=O)n2C1C` (centres undefined), with > 100 µM.
On the same count and under the same terms, with `NC(CCCC(N)P(=O)(O)O)P(=O)(O)O` (centres undefined) the figure was > 100 µM; with `CC(=O)C1C(c2ccccc2)C2(C)OC(=O)C(C#N)C12C` (centres undefined), > 100 µM.
In the case of `C[C@]12CC=CC(=O)[C@@]1(C)CCC(=O)C2`, the TGI was > 100 µM.
`CC(=O)Oc1cc2c(cc1OC(C)=O)C1(C)CCC2(C)c2cc(OC(C)=O)c(OC(C)=O)cc21` gave a TGI of 11.4 µM.
Still for that read-out and setting: with `COc1ccc2nc3cc(Cl)ccc3c(Sc3ccc([N+](=O)[O-])cc3C)c2c1` the figure was > 100 µM.

Another experiment has as its system HOP-62 NSCLC. The experiment is described as follows: NCI anticancer screen, dose series, 48 h.
In the case of `CCC1=CCN(c2cc(C)ccn2)OC1c1ccc(OC)cc1` (centres undefined), the TGI is > 100 µM.
Still for that read-out and setting: with `CC(=O)Oc1c(C)c(-c2ccccc2)c(C)c(-c2ccccc2)c1C(=S)c1ccccc1` the figure was > 100 µM.
Still for that read-out and setting: with `N#CCC(=O)N/N=C1/C(=O)N(c2ccc(Cl)cc2)C(=O)C(=O)C1c1nc2ccccc2s1` (centres undefined) the figure was > 100 µM; with `CCCCCCCCCCCC(=O)OCCOCCOCCOCCOCCOC(=O)CCCCCCCCCCC`, > 100 µM.
Same read-out and setting: with `COc1ccc(C=O)cc1O[Si](C)(C)C(C)(C)C` the figure was > 100 µM; with `CC1(O)C(C)(O)C2(C)O[Te]3(OC12C)OC1(C)C(C)(O)C(C)(O)C1(C)O3` (centres undefined), > 100 µM; with `O=C1COc2cc(NC(=S)Nc3ccccc3)ccc2N1`, > 100 µM.
With `O=S(=O)(C1=CC(S(=O)(=O)c2ccccc2)CN(Cc2ccccc2)C1c1cccc2ccccc12)c1ccccc1` (centres undefined), the TGI is > 69 µM.
`O=C1C=C(Nc2ccccc2C(=O)CC(=O)C(=O)Nc2cccc([N+](=O)[O-])c2)c2ccccc2C1=O`: the TGI is > 100 µM.
`CCC[CH2][Sn]([CH2]CCC)([O]C(=O)CN)[O]C(=O)CN`: the GI50 was 7.25 µM and the TGI is > 100 µM.
Regarding `Cc1ccc(S(=O)(=O)OC2CC=CC2)cc1`, the TGI is > 100 µM.
Still for that read-out and setting: then `COC(=O)C(=O)CC(=O)CCn1[nH]c(=O)c(Cl)c(Cl)c1=O`, with > 100 µM.
Still for that read-out and setting: then `OCC12C=CC(C1)c1ccccc12` (centres undefined), with > 100 µM; and `CCOC1C(Br)Cn2c(=O)c3cc4ccccc4cc3c(=O)n2C1C` (centres undefined), with > 100 µM; and `C[C@]12CC=CC(=O)[C@@]1(C)CCC(=O)C2`, with > 100 µM.
With `CC(=O)Oc1cc2c(cc1OC(C)=O)C1(C)CCC2(C)c2cc(OC(C)=O)c(OC(C)=O)cc21`, the TGI stood at 58.2 µM.
The same measure, in the same setting: then `COc1ccc2nc3cc(Cl)ccc3c(Sc3ccc([N+](=O)[O-])cc3C)c2c1`, with > 100 µM.

The next experiment relates to SF-539 CNS. The experiment is described as follows: NCI anticancer screen, dose series, 48 h.
Regarding `CC(=O)Oc1c(C)c(-c2ccccc2)c(C)c(-c2ccccc2)c1C(=S)c1ccccc1`, the TGI was > 100 µM.
The same measure, in the same setting: with `COc1ccc(C=O)cc1O[Si](C)(C)C(C)(C)C` the figure was > 100 µM; with `CC1(O)C(C)(O)C2(C)O[Te]3(OC12C)OC1(C)C(C)(O)C(C)(O)C1(C)O3` (centres undefined), > 100 µM; with `O=C1COc2cc(NC(=S)Nc3ccccc3)ccc2N1`, > 100 µM.
`O=S(=O)(C1=CC(S(=O)(=O)c2ccccc2)CN(Cc2ccccc2)C1c1cccc2ccccc12)c1ccccc1` (centres undefined): the TGI is > 69 µM.
Regarding `O=C1C=C(Nc2ccccc2C(=O)CC(=O)C(=O)Nc2cccc([N+](=O)[O-])c2)c2ccccc2C1=O`, the TGI was > 100 µM.
On the same count and under the same terms, with `O=C(Nc1ccc(Cl)cc1)C1C(=O)C(=O)N(c2ccc(Cl)cc2)C1=O` (centres undefined) the figure was > 100 µM.
In the case of `CCC[CH2][Sn]([CH2]CCC)([O]C(=O)CN)[O]C(=O)CN`, the GI50 was 57 µM and the TGI was > 100 µM.
With `C=CC[P@]1(=O)O[C@H](c2ccccc2)[C@H](C)N1C`, the TGI was > 100 µM.
For `O=C(Nc1cccc(O)c1)C(=O)C1C(=O)NC(=S)NC1=O`, the TGI is > 100 µM.
Still for that read-out and setting: then `COC(=O)C(=O)CC(=O)CCn1[nH]c(=O)c(Cl)c(Cl)c1=O`, with > 100 µM; and `CCOC1C(Br)Cn2c(=O)c3cc4ccccc4cc3c(=O)n2C1C` (centres undefined), with > 100 µM; and `NC(CCCC(N)P(=O)(O)O)P(=O)(O)O` (centres undefined), with > 100 µM.
Consider `CC(=O)C1C(c2ccccc2)C2(C)OC(=O)C(C#N)C12C` (centres undefined), for which the TGI was > 100 µM.
For `C[C@]12CC=CC(=O)[C@@]1(C)CCC(=O)C2`, the TGI is > 100 µM.
For `COc1ccc2nc3cc(Cl)ccc3c(Sc3ccc([N+](=O)[O-])cc3C)c2c1`, the TGI was > 100 µM.

Another experiment deals with UO-31 renal. The experiment in a line: NCI anticancer screen, dose series, 48 h.
On to `CCC1=CCN(c2cc(C)ccn2)OC1c1ccc(OC)cc1` (centres undefined), for which the TGI is > 100 µM.
Turning to `CC(=O)Oc1c(C)c(-c2ccccc2)c(C)c(-c2ccccc2)c1C(=S)c1ccccc1`, the TGI was > 100 µM.
On the same count and under the same terms, then `N#CCC(=O)N/N=C1/C(=O)N(c2ccc(Cl)cc2)C(=O)C(=O)C1c1nc2ccccc2s1` (centres undefined), with > 100 µM.
Still for that read-out and setting: then `CCCCCCCCCCCC(=O)OCCOCCOCCOCCOCCOC(=O)CCCCCCCCCCC`, with > 100 µM; and `COc1ccc(C=O)cc1O[Si](C)(C)C(C)(C)C`, with > 100 µM.
Same read-out and setting: then `CC1(O)C(C)(O)C2(C)O[Te]3(OC12C)OC1(C)C(C)(O)C(C)(O)C1(C)O3` (centres undefined), with 87.5 µM; and `O=C1COc2cc(NC(=S)Nc3ccccc3)ccc2N1`, with > 100 µM; and `O=S(=O)(C1=CC(S(=O)(=O)c2ccccc2)CN(Cc2ccccc2)C1c1cccc2ccccc12)c1ccccc1` (centres undefined), with > 69 µM.
As for `O=C1C=C(Nc2ccccc2C(=O)CC(=O)C(=O)Nc2cccc([N+](=O)[O-])c2)c2ccccc2C1=O`, the TGI is > 100 µM.
On the same count and under the same terms, then `O=C(Nc1ccc(Cl)cc1)C1C(=O)C(=O)N(c2ccc(Cl)cc2)C1=O` (centres undefined), with > 100 µM.
Turning to `CCC[CH2][Sn]([CH2]CCC)([O]C(=O)CN)[O]C(=O)CN`, the GI50 is > 100 µM and the TGI is > 100 µM.
Consider `CC(=O)c1ccc(NC(=O)/C(CC(=O)c2sc(-c3cccnc3)nc2C)=N/NC(N)=O)cc1`, for which the TGI was > 100 µM.
The same measure, in the same setting: then `Cc1ccc(S(=O)(=O)OC2CC=CC2)cc1`, with > 100 µM; and `C=CC[P@]1(=O)O[C@H](c2ccccc2)[C@H](C)N1C`, with > 100 µM.
With `O=C(Nc1cccc(O)c1)C(=O)C1C(=O)NC(=S)NC1=O`, the TGI was > 100 µM.
For `COC(=O)C(=O)CC(=O)CCn1[nH]c(=O)c(Cl)c(Cl)c1=O`, the TGI is > 100 µM.
Take `OCC12C=CC(C1)c1ccccc12` (centres undefined): the TGI is > 100 µM.
Same read-out and setting: with `CCOC1C(Br)Cn2c(=O)c3cc4ccccc4cc3c(=O)n2C1C` (centres undefined) the figure was > 100 µM; with `NC(CCCC(N)P(=O)(O)O)P(=O)(O)O` (centres undefined), > 100 µM; with `CC(=O)C1C(c2ccccc2)C2(C)OC(=O)C(C#N)C12C` (centres undefined), > 100 µM.
For the molecule `C[C@]12CC=CC(=O)[C@@]1(C)CCC(=O)C2`, the TGI was > 100 µM.
Molecule `CC(=O)Oc1cc2c(cc1OC(C)=O)C1(C)CCC2(C)c2cc(OC(C)=O)c(OC(C)=O)cc21` yielded a TGI of 89.1 µM.
The same measure, in the same setting: then `COc1ccc2nc3cc(Cl)ccc3c(Sc3ccc([N+](=O)[O-])cc3C)c2c1`, with > 100 µM.

In another experiment the test system is IGROV1 ovarian. The experiment is described as follows: NCI anticancer screen, dose series, 48 h.
Turning to `CCC1=CCN(c2cc(C)ccn2)OC1c1ccc(OC)cc1` (centres undefined), the TGI is > 100 µM.
Regarding `CC(=O)Oc1c(C)c(-c2ccccc2)c(C)c(-c2ccccc2)c1C(=S)c1ccccc1`, the TGI is > 100 µM.
Turning to `N#CCC(=O)N/N=C1/C(=O)N(c2ccc(Cl)cc2)C(=O)C(=O)C1c1nc2ccccc2s1` (centres undefined), the TGI was > 100 µM.
Still for that read-out and setting: then `CCCCCCCCCCCC(=O)OCCOCCOCCOCCOCCOC(=O)CCCCCCCCCCC`, with > 100 µM; and `COc1ccc(C=O)cc1O[Si](C)(C)C(C)(C)C`, with > 100 µM.
The same measure, in the same setting: then `CC1(O)C(C)(O)C2(C)O[Te]3(OC12C)OC1(C)C(C)(O)C(C)(O)C1(C)O3` (centres undefined), with 35.7 µM; and `O=C1COc2cc(NC(=S)Nc3ccccc3)ccc2N1`, with > 100 µM; and `O=S(=O)(C1=CC(S(=O)(=O)c2ccccc2)CN(Cc2ccccc2)C1c1cccc2ccccc12)c1ccccc1` (centres undefined), with > 69 µM.
Consider `O=C1C=C(Nc2ccccc2C(=O)CC(=O)C(=O)Nc2cccc([N+](=O)[O-])c2)c2ccccc2C1=O`, for which the TGI was > 100 µM.
With `O=C(Nc1ccc(Cl)cc1)C1C(=O)C(=O)N(c2ccc(Cl)cc2)C1=O` (centres undefined), the TGI is > 100 µM.
As to `CCC[CH2][Sn]([CH2]CCC)([O]C(=O)CN)[O]C(=O)CN`, the GI50 is > 100 µM and the TGI is > 100 µM.
For the molecule `CC(=O)c1ccc(NC(=O)/C(CC(=O)c2sc(-c3cccnc3)nc2C)=N/NC(N)=O)cc1`, the TGI is > 100 µM.
As for `Cc1ccc(S(=O)(=O)OC2CC=CC2)cc1`, the TGI was > 100 µM.
With `C=CC[P@]1(=O)O[C@H](c2ccccc2)[C@H](C)N1C`, the TGI was > 100 µM.
`O=C(Nc1cccc(O)c1)C(=O)C1C(=O)NC(=S)NC1=O`: the TGI was > 100 µM.
As for `COC(=O)C(=O)CC(=O)CCn1[nH]c(=O)c(Cl)c(Cl)c1=O`, the TGI is > 100 µM.
The same measure, in the same setting: with `OCC12C=CC(C1)c1ccccc12` (centres undefined) the figure was > 100 µM; with `CCOC1C(Br)Cn2c(=O)c3cc4ccccc4cc3c(=O)n2C1C` (centres undefined), > 100 µM; with `NC(CCCC(N)P(=O)(O)O)P(=O)(O)O` (centres undefined), > 100 µM.
The same measure, in the same setting: with `CC(=O)C1C(c2ccccc2)C2(C)OC(=O)C(C#N)C12C` (centres undefined) the figure was > 100 µM.
With `C[C@]12CC=CC(=O)[C@@]1(C)CCC(=O)C2`, the TGI is > 100 µM.
On the same count and under the same terms, with `CC(=O)Oc1cc2c(cc1OC(C)=O)C1(C)CCC2(C)c2cc(OC(C)=O)c(OC(C)=O)cc21` the figure was 72.3 µM.
In the case of `COc1ccc2nc3cc(Cl)ccc3c(Sc3ccc([N+](=O)[O-])cc3C)c2c1`, the TGI was > 100 µM.
